Toxic doses and inconclusive results are not listed. Rule for the calls: active = survival T/C of 150% or more; inactive = T/C below 125% in these data.
Tested on: CD2F1 mice, L1210 leukemia ip, survival T/C
Test: NCI In Vivo Anticancer Drug Screen. Data for tumor model L1210 Leukemia (intraperitoneal) in CD2F1 (CDF1) mice
Details: endpoint: mean survival time, higher = longer survival
Method in brief: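 Mice carrying a transplanted tumor received test compound or vehicle alone. The value is the measurement in the treated group divided by that in the vehicle-treated control group.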

[1] = dose: 100.0 mg/kg/injection, schedule: Q04DX003 (ip), vehicle: saline with Tween-80
[2] = dose: 200.0 mg/kg/injection, schedule: Q04DX003 (ip), vehicle: saline with Tween-80
[3] = dose: 400.0 mg/kg/injection, schedule: Q04DX003 (ip), vehicle: saline with Tween-80
[4] = dose: 100.0 mg/kg/injection, schedule: Q01DX009 (ip), vehicle: saline with Tween-80
[5] = dose: 100.0 mg/kg/injection, schedule: Q01DX001 (ip), vehicle: saline with Tween-80
[6] = dose: 200.0 mg/kg/injection, schedule: Q01DX001 (ip), vehicle: saline with Tween-80
[7] = dose: 400.0 mg/kg/injection, schedule: Q01DX001 (ip), vehicle: saline with Tween-80

Measured: T/C

O=S(=O)(NC1CCc2ccccc21)c1ccccc1 (centres undefined)
inactive: [1] 98 % of control | [2] 97 % of control | [3] 98 % of control

O=c1c2ccc(Cl)cc2[nH]c(=S)n1-c1ccc(Cl)cc1
inactive: [1] 104 % of control | [2] 93 % of control | [3] 102 % of control

CCOC(=O)C(OC(C)=O)c1ccccc1 (centres undefined)
inactive: [4] 98 % of control | dose: 200.0 mg/kg/injection, schedule: Q01DX009 (ip), vehicle: saline with Tween-80 93 % of control | dose: 400.0 mg/kg/injection, schedule: Q01DX009 (ip), vehicle: saline with Tween-80 96 % of control

CCOC(=O)N1CCN(c2ccc(Cl)cc2)CC1
inactive: dose: 100.0 mg/kg/injection, schedule: Q04DX003 (ip), vehicle: Klucel (hydroxypropylcellulose) (HPC) 93 % of control | dose: 200.0 mg/kg/injection, schedule: Q04DX003 (ip), vehicle: Klucel (hydroxypropylcellulose) (HPC) 91 % of control

COCCNP(=S)(OC)OC
inactive: [5] 100 % of control | [6] 101 % of control | [7] 106 % of control

CCC1OC2CS(=O)(=O)CC2O1 (centres undefined)
inactive: [1] 96 % of control | [2] 96 % of control | [3] 96 % of control

C[N+](C)(Cc1ccc(F)cc1)C1c2ccccc2-c2ccccc21
inactive: dose: 1.56 mg/kg/injection, schedule: Q04DX003 (ip), vehicle: saline 97 % of control | dose: 3.13 mg/kg/injection, schedule: Q04DX003 (ip), vehicle: saline 97 % of control | dose: 6.25 mg/kg/injection, schedule: Q04DX003 (ip), vehicle: saline 98 % of control

COc1cc2c(c(OC)c1OC)-c1ccc(SC)c(=O)cc1[C@@H](NC(=O)NCCCl)CC2
inactive: dose: 1.56 mg/kg/injection, schedule: Q01DX005 (ip), vehicle: water 103 % of control | dose: 3.13 mg/kg/injection, schedule: Q01DX005 (ip), vehicle: water 103 % of control | dose: 6.25 mg/kg/injection, schedule: Q01DX005 (ip), vehicle: water 122 % of control | dose: 6.25 mg/kg/injection, schedule: Q01DX009 (ip), vehicle: water 123 % of control | dose: 12.5 mg/kg/injection, schedule: Q01DX005 (ip), vehicle: water 117 % of control | dose: 12.5 mg/kg/injection, schedule: Q01DX009 (ip), vehicle: water 123 % of control

BrC=C=C1CCCCC1
inactive: [1] 95 % of control | [2] 93 % of control | [3] 97 % of control

CCCCOS(=O)(=O)c1ccc(N)cc1
inactive: [1] 92 % of control | [2] 98 % of control | [3] 97 % of control

Nc1ccc(-c2ccc(N)cc2O)c(O)c1
inactive: dose: 50.0 mg/kg/injection, schedule: Q01DX009 (ip), vehicle: saline with Tween-80 98 % of control | [4] 95 % of control

CC1=C(O)C(=O)OC1c1ccc(C)cc1 (centres undefined)
inactive: dose: 12.5 mg/kg/injection, schedule: Q01DX009 (ip), vehicle: other 101 % of control | dose: 25.0 mg/kg/injection, schedule: Q01DX009 (ip), vehicle: other 98 % of control | dose: 50.0 mg/kg/injection, schedule: Q01DX009 (ip), vehicle: other 95 % of control | dose: 100.0 mg/kg/injection, schedule: Q01DX009 (ip), vehicle: other 98 % of control | dose: 200.0 mg/kg/injection, schedule: Q01DX009 (ip), vehicle: other 104 % of control

CCC(C)C#N (centres undefined)
inactive: dose: 5.0 mg/kg/injection, schedule: Q01DX009 (ip), vehicle: saline with Tween-80 98 % of control | dose: 5.0 mg/kg/injection, schedule: Q04DX003 (ip), vehicle: saline 97 % of control | dose: 10.0 mg/kg/injection, schedule: Q01DX009 (ip), vehicle: saline with Tween-80 100 % of control | dose: 10.0 mg/kg/injection, schedule: Q04DX003 (ip), vehicle: saline 103 % of control | dose: 20.0 mg/kg/injection, schedule: Q01DX009 (ip), vehicle: saline with Tween-80 94 % of control | dose: 20.0 mg/kg/injection, schedule: Q04DX003 (ip), vehicle: saline 103 % of control

N#CC[CH2][Sn]([I])([c]1ccccc1)[c]1ccccc1
inactive: dose: 6.25 mg/kg/injection, schedule: Q04DX003 (ip), vehicle: saline with Tween-80 97 % of control | dose: 12.5 mg/kg/injection, schedule: Q04DX003 (ip), vehicle: saline with Tween-80 97 % of control

Nc1nc(=O)n(CCCOc2ccccc2NC(=O)Nc2cccc(S(=O)(=O)F)c2)cc1-c1ccc(Cl)c(Cl)c1
inactive: dose: 75.0 mg/kg/injection, schedule: Q01DX001 (ip), vehicle: saline with Tween-80 95 % of control | dose: 150.0 mg/kg/injection, schedule: Q01DX001 (ip), vehicle: saline with Tween-80 95 % of control | dose: 300.0 mg/kg/injection, schedule: Q01DX001 (ip), vehicle: saline with Tween-80 101 % of control

Cc1ccc(C2=C(c3ccc(C)cc3)CS(=O)(=O)C2)cc1
inactive: [5] 92 % of control | [6] 93 % of control | [7] 92 % of control | dose: 800.0 mg/kg/injection, schedule: Q01DX001 (ip), vehicle: saline with Tween-80 92 % of control

From PubChem BioAssay AID256 (DTP/NCI, 2004)
